In patent publication US8952024B2, “Herbicidal pyrimidone derivatives” (E I du Pont de Nemours and Company, priority 2009, dated 2015):

Assays:
Assay type in all cases: in vivo
[1] = system: johnsongrass (Sorghum halepense); assay: Test B pre-/postemergence plant response
How it was run: (§1)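 Compound in solvent + surfactant applied pre-em (loam/sand) or post-em (plants 2–18 cm, peat medium); greenhouse hold 13–15 days; visual 0–100 control score.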

wild oat (Avena fatua) = assay: Test B pre-/postemergence plant response
How it was run: as §1

[2] = system: ragweed (common ragweed, Ambrosia elatior); assay: Test B pre-/postemergence plant response
How it was run: as §1

[3] = system: large crabgrass (Digitaria sanguinalis); assay: Test B pre-/postemergence plant response
How it was run: as §1

[4] = system: velvetleaf (Abutilon theophrasti); assay: Test B pre-/postemergence plant response
How it was run: as §1

[5] = system: lambsquarters (Chenopodium album); assay: Test B pre-/postemergence plant response
How it was run: as §1

[6] = system: Italian ryegrass (Lolium multiflorum); assay: Test B pre-/postemergence plant response
How it was run: as §1

soybean (Glycine max) = assay: Test B pre-/postemergence plant response
How it was run: as §1

[7] = system: blackgrass (Alopecurus myosuroides); assay: Test B pre-/postemergence plant response
How it was run: as §1

[8] = system: bermudagrass (Cynodon dactylon); assay: Test B pre-/postemergence plant response
How it was run: as §1

[9] = system: woolly cupgrass (Eriochloa villosa); assay: Test B pre-/postemergence plant response
How it was run: as §1

[10] = system: Surinam grass (Brachiaria decumbens); assay: Test B pre-/postemergence plant response
How it was run: as §1

[11] = system: yellow nutsedge (Cyperus esculentus); assay: Test B pre-/postemergence plant response
How it was run: as §1

corn (Zea mays) = assay: Test B pre-/postemergence plant response
How it was run: as §1

[12] = system: windgrass (Apera spica-venti); assay: Test B postemergence plant response
How it was run: (§2)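 Plants at the 1- to 4-leaf stage (2 to 18 cm tall), grown in pots of peat moss/vermiculite medium with wetting agent and starter nutrients, received postemergence applications of test chemicals. After 13 to 15 days in a greenhouse, injury was rated visually against untreated controls on a 0 (no effect) to 100 (complete control) scale.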

[13] = system: winter barley (Hordeum vulgare); assay: Test B postemergence plant response
How it was run: as §2

[14] = system: chickweed (Stellaria media); assay: Test B postemergence plant response
How it was run: as §2

[15] = system: canarygrass (Phalaris minor); assay: Test B postemergence plant response
How it was run: as §2

[16] = 31 g ai/ha, postemergence, scale 0 to 100, 0 is no effect, 100 is complete control
[17] = 250 g ai/ha, Preemergence, 0 to 100 scale
[18] = Postemergence, 62 g ai/ha, scale 0 (no effect) to 100 (complete control), 13 to 15 days
[19] = Postemergence, 125 g ai/ha, visual rating after 13 to 15 days, scale 0 (no effect) to 100 (complete control)
[20] = Postemergence, 250 g ai/ha, scale 0 to 100 (0 no effect, 100 complete control)
[21] = Preemergence, 31 g ai/ha, scale 0 to 100 (0 no effect, 100 complete control)
[22] = Preemergence, 62 g ai/ha, scale 0 to 100, 0 no effect, 100 complete control
[23] = Preemergence, 125 g ai/ha, scale 0 to 100, 0 no effect, 100 complete control

Cc1cccc(-n2c(-c3ccccc3)ncc(C(=O)C3=C(O)CCCC3=O)c2=O)c1F [Compound 58]
75: Plant response rating, Ragweed [2, 22] | Plant response rating, Crabgrass, Large [3, 16] | Plant response rating, Velvetleaf [4, 16] | Plant response rating, Velvetleaf [4, 18] | Plant response rating, Velvetleaf [4, 21] | Plant response rating, Nutsedge, Yellow [11, 20] | Plant response rating, Nutsedge, Yellow [11, 22] | Plant response rating, Nutsedge, Yellow [11, 23]
90: Plant response rating, Ragweed [2, 19] | Plant response rating, Crabgrass, Large [3, 19] | Plant response rating, Crabgrass, Large [3, 20] | Plant response rating, Chickweed [14, 19] | Plant response rating, Chickweed [14, 20]
80: Plant response rating, Johnsongrass [1, 23] | Plant response rating, Ragweed [2, 16] | Plant response rating, Crabgrass, Large [3, 18] | Plant response rating, Velvetleaf [4, 22] | Plant response rating, Surinam Grass [10, 18] | Plant response rating, Corn (corn (Zea mays); [20]) | Plant response rating, Chickweed [14, 18] | Plant response rating, Canarygrass [15, 19]
25: Plant response rating, Nutsedge, Yellow [11, 16]
65: Plant response rating, Cupgrass, Woolly [9, 16] | Plant response rating, Cupgrass, Woolly [9, 18] | Plant response rating, Surinam Grass [10, 22] | Plant response rating, Corn (corn (Zea mays); [19])
70: Plant response rating, Ryegrass, Italian [6, 20] | Plant response rating, Cupgrass, Woolly [9, 19] | Plant response rating, Surinam Grass [10, 16] | Plant response rating, Windgrass [12, 20] | Plant response rating, Chickweed [14, 16]
100: Plant response rating, Johnsongrass [1, 20] | Plant response rating, Crabgrass, Large [3, 17] | Plant response rating, Lambsquarters [5, 19] | Plant response rating, Lambsquarters [5, 20] | Plant response rating, Bermudagrass [8, 17] | Plant response rating, Bermudagrass [8, 20] | Plant response rating, Bermudagrass [8, 23]
35: Plant response rating, Windgrass [12, 16]
55: Plant response rating, Nutsedge, Yellow [11, 19]
85: Plant response rating, Johnsongrass [1, 17] | Plant response rating, Johnsongrass [1, 18] | Plant response rating, Oat, Wild (wild oat (Avena fatua); [20]) | Plant response rating, Ragweed [2, 18] | Plant response rating, Ragweed [2, 23] | Plant response rating, Velvetleaf [4, 19] | Plant response rating, Lambsquarters [5, 21] | Plant response rating, Soybean (soybean (Glycine max); [16]) | Plant response rating, Soybean (soybean (Glycine max); [18]) | Plant response rating, Soybean (soybean (Glycine max); [23]) | Plant response rating, Bermudagrass [8, 16] | Plant response rating, Bermudagrass [8, 18] | Plant response rating, Cupgrass, Woolly [9, 17] | Plant response rating, Surinam Grass [10, 23] | Plant response rating, Canarygrass [15, 20]
60: Plant response rating, Oat, Wild (wild oat (Avena fatua); [18]) | Plant response rating, Oat, Wild (wild oat (Avena fatua); [19]) | Plant response rating, Windgrass [12, 19] | Plant response rating, Canarygrass [15, 16] | Plant response rating, Canarygrass [15, 18]
40: Plant response rating, Blackgrass [7, 20] | Plant response rating, Surinam Grass [10, 21] | Plant response rating, Nutsedge, Yellow [11, 18]
20: Plant response rating, Johnsongrass [1, 22] | Plant response rating, Ragweed [2, 21] | Plant response rating, Blackgrass [7, 19] | Plant response rating, Cupgrass, Woolly [9, 23] | Plant response rating, Nutsedge, Yellow [11, 21]
0: Plant response rating, Oat, Wild (wild oat (Avena fatua); [21]) | Plant response rating, Oat, Wild (wild oat (Avena fatua); [22]) | Plant response rating, Oat, Wild (wild oat (Avena fatua); [23]) | Plant response rating, Ryegrass, Italian [6, 16] | Plant response rating, Ryegrass, Italian [6, 18] | Plant response rating, Ryegrass, Italian [6, 21] | Plant response rating, Ryegrass, Italian [6, 22] | Plant response rating, Ryegrass, Italian [6, 23] | Plant response rating, Blackgrass [7, 21] | Plant response rating, Blackgrass [7, 22] | Plant response rating, Corn (corn (Zea mays); [16]) | Plant response rating, Corn (corn (Zea mays); [17]) | Plant response rating, Corn (corn (Zea mays); [21]) | Plant response rating, Corn (corn (Zea mays); [22]) | Plant response rating, Corn (corn (Zea mays); [23])
45: Plant response rating, Oat, Wild (wild oat (Avena fatua); [16]) | Plant response rating, Corn (corn (Zea mays); [18])
30: Plant response rating, Ryegrass, Italian [6, 19] | Plant response rating, Blackgrass [7, 17]
10: Plant response rating, Johnsongrass [1, 21] | Plant response rating, Soybean (soybean (Glycine max); [21]) | Plant response rating, Blackgrass [7, 18] | Plant response rating, Cupgrass, Woolly [9, 21] | Plant response rating, Cupgrass, Woolly [9, 22] | Plant response rating, Barley [13, 20]
50: Plant response rating, Johnsongrass [1, 16] | Plant response rating, Windgrass [12, 18]
5: Plant response rating, Blackgrass [7, 16] | Plant response rating, Blackgrass [7, 23] | Plant response rating, Barley [13, 16] | Plant response rating, Barley [13, 18] | Plant response rating, Barley [13, 19]
95: Plant response rating, Crabgrass, Large [3, 21] | Plant response rating, Velvetleaf [4, 20] | Plant response rating, Velvetleaf [4, 23] | Plant response rating, Lambsquarters [5, 16] | Plant response rating, Lambsquarters [5, 18] | Plant response rating, Soybean (soybean (Glycine max); [19]) | Plant response rating, Soybean (soybean (Glycine max); [20]) | Plant response rating, Cupgrass, Woolly [9, 20] | Plant response rating, Surinam Grass [10, 19]
98: Plant response rating, Johnsongrass [1, 19] | Plant response rating, Ragweed [2, 20] | Plant response rating, Crabgrass, Large [3, 22] | Plant response rating, Crabgrass, Large [3, 23] | Plant response rating, Lambsquarters [5, 17] | Plant response rating, Lambsquarters [5, 22] | Plant response rating, Lambsquarters [5, 23] | Plant response rating, Bermudagrass [8, 19] | Plant response rating, Bermudagrass [8, 21] | Plant response rating, Bermudagrass [8, 22] | Plant response rating, Surinam Grass [10, 20]
